# Measurements published in US11559538B2, “Substituted 1,2-oxaborolan-2-ols as PDE4 inhibitors” (Pfizer Inc., priority 2018, dated 2023).
# Like-named read-outs stand apart in the source and are kept apart here.
# How the values were obtained:
# [1] = biological target: PDE4B (aa 152-484, Uniprot ID Q07343) (Homo sapiens (Human), UniProt Q07343); assay: PDE4 SPA assay (scintillation proximity assay); format: biochemical; conditions: read-out: PDE4B2 IC50
# Protocol: Phosphodiesterase (PDE) activity is determined by measuring the effect of a test agent on the activity of the PDE4B enzyme in a scintillation proximity assay (SPA). At the time of assay, approximately 30 μL of PDE4B (aa 152-484, Uniprot ID Q07343) in 50 mM Tris pH 7.5, 1.3 mM MgC2, 0.004% Brij 35 is added to a 384 well white clear bottom polystyrene plate (Corning) containing 1 μL of varying concentrations of test compound. After −10 minutes at room temperature (RT; 21° C.), the assay is initiated by the addition of 20 μL of a mixture of ^3H-labeled (adenosine 3′, 5′-cyclic phosphate, ammonium salt, [2,8-^3H]; Perkin Elmer) and unlabeled cAMP. The final assay conditions are approximately 81.6 pM PDE4B in 50 mM Tris pH 7.5, 1.3 mM MgCl2, 0.004% Brij 35, 1 μM ^3H-labeled/unlabeled cAMP (1425 dpm/pmol) and the indicated final concentration of test compound (approximately 10 μM to […] by 4-fold dilution). The final concentration of DMSO in the assay is approximately 2.0%. After 30 minutes at RT, the assay is terminated by the addition of approximately 20 μL of an aqueous solution of PDE YSI SPA beads (8 mg/mL in water; Perkin Elmer). The beads are allowed to settle for at least 2 hours and the plate is then counted on a MicroBeta2 (Perkin Elmer). The concentrations and resulting effect values for the tested compound are plotted and the concentration of compound required for 50% effect (IC50) is determined with a four-parameter logistic dose response equation (E-WorkBook, ID Business Solutions Ltd.) and shown in Table 17.
# [2] = tested on: IL-4; assay: Cytokine assay: IL-4 release from PHA-L stimulated human PBMCs; format: cell-based; conditions: read-out: IL4 IC50
# In short: (§1)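 PBMC thaw, ~250k cells/well; cpd pre-incubation ~10 min RT; PHA-L 3.5 μg/mL final; 48 h, 37° C, 5% CO2; supernatant HTRF; IC50 by 4-parameter logistic.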
# [3] = tested on: IL-13; assay: Cytokine assay: IL-13 release from PHA-L stimulated human PBMCs; format: cell-based; conditions: read-out: IL13 IC50
# In short: as §1
# [4] = tested on: IFNγ; assay: Cytokine assay: IFNγ release from PHA-L stimulated human PBMCs; format: cell-based
# In short: as §1
# Chain of PDE4B (aa 152-484, Uniprot ID Q07343) (Q07343 324-656): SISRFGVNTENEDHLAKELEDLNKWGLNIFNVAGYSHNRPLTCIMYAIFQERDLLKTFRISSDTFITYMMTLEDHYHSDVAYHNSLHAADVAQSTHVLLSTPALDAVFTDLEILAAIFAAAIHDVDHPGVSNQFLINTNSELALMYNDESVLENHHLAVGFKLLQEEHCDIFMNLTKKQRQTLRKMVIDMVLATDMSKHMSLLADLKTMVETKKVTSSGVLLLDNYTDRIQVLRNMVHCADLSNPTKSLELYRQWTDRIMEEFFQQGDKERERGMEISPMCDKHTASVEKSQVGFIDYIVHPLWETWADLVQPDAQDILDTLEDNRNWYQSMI
IC50 [1],"IC50 ([2]; Homo sapiens, PBMC)","IC50 ([3]; Homo sapiens, PBMC)","IC50 ([4]; Homo sapiens, PBMC)",IC50 [2],IC50 [3],IC50 [4],SMILES
12.5 nM,135 nM,1530 nM,12.2 nM,,,,"CCOc1ccc(-c2cncc(C3COB(O)C3)c2)cc1OC (single isomer, unassigned; enantiomer2) [Example 188, 4-(5-(4-ethoxy-3-methoxyphenyl)pyridin-3-yl)-1,2-oxaborolan-2-ol, enantiomer2]"
5.58 nM,41.1 nM,986 nM,7.87 nM,,,,"CCOc1c(OC)cc(F)c(-c2cncc(C3COB(O)C3)c2)c1F (single isomer, unassigned; enantiomer 1) [Example 164, (−) 4-(5-(3-ethoxy-2,6-difluoro-4-methoxyphenyl)pyridin-3-yl)-1,2-oxaborolan-2-ol, enantiomer 1]"
0.88 nM,1.17 nM,1260 nM,0.64 nM,,,,"CCCOc1c(OC)ccc(-c2cncc(C3COB(O)C3)c2)c1OC (single isomer, unassigned; enantiomer 1) [Example 168, (−) 4-(5-(2,4-dimethoxy-3-propoxphenyl)pyridin-3-yl)-1,2-oxaborolan-2-ol, enantiomer 1]"
3.78 nM,48.5 nM,1070 nM,2.83 nM,,,,"COc1ccc(-c2cncc(C3COB(O)C3)c2)cc1OC1CCSCC1 (single isomer, unassigned; enantiomer 1) [Example 170, 4-(5-(4-methoxy-3-((tetrahydro-2H-thiopyran-4-yl)oxy)phenyl)pyridin-3-yl)-1,2-oxaborolan-2-ol, enantiomer 1]"
0.98 nM,0.72 nM,2730 nM,0.74 nM,,,,"CCCOc1cc(-c2cncc(C3COB(O)C3)c2)ncc1OC (single isomer, unassigned; enantiomer 1) [Example 179, 4-(5-methoxy-4-propoxy-[2,3′-bipyridin]-5-yl)-1,2-oxaborolan-2-ol, enantiomer 1]"
3.01 nM,6.33 nM,1290 nM,6.65 nM,,,,"CCCOc1cc(-c2cc(C3COB(O)C3)cc(CO)n2)ccc1OC (single isomer, unassigned; enantiomer 1) [Example 180, 4-(2-(hydroxymethyl)-6-(4-methoxy-3-propoxyphenyl)pyridin-4-yl)-1,2-oxaborolan-2-ol, enantiomer 1]"
0.63 nM,,,,73.1 nM,1530 nM,2.16 nM,"COc1ccc(-c2cncc(C3COB(O)C3)c2)cc1OC1CC1 (single isomer, unassigned; enantiomer 1) [Example 193, 4-(5-(3-cyclopropoxy-4-methoxyphenyl)pyridin-3-yl)-1,2-oxaborolan-2-ol, enantiomer 1]"
3.63 nM,2.85 nM,1540 nM,14.7 nM,,,,"CCOc1cc(-c2nc(C3COB(O)C3)cs2)ccc1OC (single isomer, unassigned; enantiomer 1) [Example 194, (−) 4-(2-(3-ethoxy-4-methoxyphenyl)thiazol-4-yl)-1,2-oxaborolan-2-ol, enantiomer 1]"
0.34 nM,0.29 nM,1540 nM,0.81 nM,,,,"CCCOc1cc(-c2nc(OCCO)cc(C3COB(O)C3)n2)ccc1OC (single isomer, unassigned; enantiomer 1) [Example 196, (−) 4-(6-(2-hydroxyethoxy)-2-(4-methoxy-3-propoxyphenyl)pyrimidin-4-yl)-1,2-oxaborolan-2-ol, enantiomer 1]"
6.07 nM,22.7 nM,1710 nM,21.8 nM,,,,"CCOc1cc(-c2cccc(C3COB(O)C3)n2)ccc1SC (single isomer, unassigned; enantiomer 1) [Example 204, 4-(6-(3-ethoxy-4-(methylthio)phenyl)pyridin-2-yl)-1,2-oxaborolan-2-ol, enantiomer 1]"
